In the OligoGym collection:
Where “and” joins values, the source holds several entries; their conditions need not be identical. Equal entries are not always repeated. After the bases stand the sugars from the 5' end (letter, count) and the backbone: PS all phosphorothioate, else s phosphorothioate and o phosphodiester by linkage. Methylation of C is not given here. e = 2'-O-(2-methoxyethyl) (MOE); k = constrained ethyl (cEt); d = 2'-deoxy (DNA)

Biological target: IRF4
Conditions: ASO

Sequence | target mRNA inhibition (SK-MEL-28, 4 µM) | target mRNA inhibition (MM.1R, 1 µM) | further results
AAGGTTCCTGTCACCT (sugars k3 d10 k3, PS) | -2% |  | 
AAGTGGAGGTCTTTGG (sugars k3 d10 k3, PS) | 66% |  | 
AAGTGTCTAAAGTCCC (sugars k2 d9 e3 k2, PS) |  | 21% and 46% | 
AAGTGTCTAAAGTCCC (sugars k3 d10 k3, PS) |  | 50% and 41% | 
AAGTGTCTAAAGTCCC (sugars kdddddddddkekeke, PS) |  | 4% and 5% | 
AAGTTCATGTAAAGTC (sugars kkdddddddddekeke, PS) |  | 34% and 29% | 
AAGTTCATGTAAAGTC (sugars kkdddddddddkdkdk, PS) |  | 32% and 34% | 
AAGTTTACACTGGATC (sugars k3 d10 k3, PS) | 58% |  | 
AATAAGCTCATCTGCC (sugars k3 d10 k3, PS) | 36% |  | 
AATATAGTTGTCTGGC (sugars k3 d10 k3, PS) | 50% |  | 
AATCAGATGATGTCTA (sugars k3 d10 k3, PS) | -3% |  | 
AATCTGGATGAGCTTA (sugars k3 d10 k3, PS) |  | 4% | 
AATCTTCTGCTGATCC (sugars k3 d10 k3, PS) | 72% |  | 
AATGAAGATCCACTAG (sugars k3 d10 k3, PS) | 61% |  | 
AATGAGGAAGCCGTTC (sugars k3 d10 k3, PS) | 47% |  | 
AATGAGTCGGTCACTT (sugars k3 d10 k3, PS) | 46% |  | 
AATGCATAACACGGTG (sugars k3 d10 k3, PS) | 49% |  | 
AATGTCCACTGTTTTG (sugars k3 d10 k3, PS) | 47% |  | 
AATGTGTATTACTCTT (sugars kddddddddddkekek, PS) |  | 24% and 29% | 
AATGTGTATTACTCTT (sugars kkdddddddddkdkdk, PS) |  | 10% and 15% | 
AATTAAAGAGCGCATT (sugars k3 d10 k3, PS) | 17% |  | 
AATTCCATAGAGCCAG (sugars k3 d10 k3, PS) |  | 18% | 
AATTGGCACGAGGAAG (sugars k3 d10 k3, PS) | 28% |  | 
AATTTCCATTGGAGGA (sugars k3 d10 k3, PS) | 33% |  | 
AATTTTCACAGTGATC (sugars k3 d10 k3, PS) | 34% |  | 
ACAAAAGGTTCCCGCG (sugars k3 d10 k3, PS) | 3% |  | 

Sequence | target mRNA inhibition (SK-MEL-28, 4 µM) | target mRNA inhibition (MM.1R, 1 µM) | further results
ACAAGCAGTGATGTCA (sugars k3 d10 k3, PS) | 73% | 14% | target mRNA inhibition (MM.1R, 0.0625 µM): -4%; target mRNA inhibition (MM.1R, 0.074 µM): 2%; target mRNA inhibition (MM.1R, 0.222 µM): 6%; target mRNA inhibition (MM.1R, 0.25 µM): 5%; target mRNA inhibition (MM.1R, 0.666 µM): 14%; target mRNA inhibition (MM.1R, 2 µM): 46%; target mRNA inhibition (MM.1R, 4 µM): 52%
ACAAGCATAAAAGGTT (sugars k3 d10 k3, PS) | 4% |  | 
ACAAGCTGGGCCTTGC (sugars k3 d10 k3, PS) | 27% |  | 
ACAATAAAATGTCACG (sugars k3 d10 k3, PS) | 29% |  | 
ACAATACTGTAAGGGC (sugars k3 d10 k3, PS) | 75% and 68% |  | 
ACACAAGTGGCCTTCC (sugars k3 d10 k3, PS) | 31% |  | 
ACACACAAGTGGCCTT (sugars k3 d10 k3, PS) | 44% |  | 
ACACACCAGGTTAAAC (sugars k3 d10 k3, PS) | 12% |  | 
ACACACCTGACAACCA (sugars k3 d10 k3, PS) | 36% |  | 
ACACAGCCTCGCCCTC (sugars k3 d10 k3, PS) | 20% |  | 
ACACTTTGTACGGGTC (sugars k3 d10 k3, PS) | 56% |  | 
ACACTTTTAGAGAGGA (sugars e1 k2 d9 k2 e2, PS) |  | 29% | 
ACACTTTTAGAGAGGA (sugars k3 d9 k3 e1, PS) |  | 29% | 
ACACTTTTAGAGAGGA (sugars kddddddddddkekek, PS) |  | -6% | 
ACACTTTTAGAGAGGA (sugars kdddddddddkekeke, PS) |  | 6% | 
ACACTTTTAGAGAGGA (sugars kkkddddddddkekek, PS) |  | 15% | 
ACAGAGAGTCCGACGC (sugars k3 d10 k3, PS) |  | -8% | 
ACAGAGCCAACTTATA (sugars k3 d10 k3, PS) | 6% |  | 
ACAGATGGCATGCGAA (sugars k3 d10 k3, PS) |  | 19% | 
ACAGCCGAAGCATTTT (sugars k3 d10 k3, PS) |  | 8% | 
ACAGGCACGGCTTCAG (sugars k3 d10 k3, PS) | 64% |  | 
ACAGTAAGAGGGCAGT (sugars k3 d10 k3, PS) | 84% |  | 
ACAGTGACTTGCATCC (sugars kkdddddddddkekek, PS) |  | 32% | 
ACATAACTCAGGCAAG (sugars k3 d10 k3, PS) | 1% |  | 
ACCAACGACAGCATAG (sugars k3 d10 k3, PS) | 67% |  | 
ACCAATTTATGCCATG (sugars k3 d10 k3, PS) | 17% |  | 

Sequence | target mRNA inhibition (SK-MEL-28, 4 µM) | target mRNA inhibition (MM.1R, 1 µM) | further results
ACCATATTGGAAACCA (sugars k3 d10 k3, PS) | 74% | 3% | target mRNA inhibition (MM.1R, 0.0625 µM): -12%; target mRNA inhibition (MM.1R, 0.074 µM): -11%; target mRNA inhibition (MM.1R, 0.222 µM): -18%; target mRNA inhibition (MM.1R, 0.25 µM): -6%; target mRNA inhibition (MM.1R, 0.666 µM): -1%; target mRNA inhibition (MM.1R, 2 µM): 13%; target mRNA inhibition (MM.1R, 4 µM): 34%
ACCATGTTCCTGAAGA (sugars k3 d10 k3, PS) | 44% |  | 
ACCATTACTTAGACAT (sugars k3 d10 k3, PS) | 65% |  | 
ACCATTCAGACAGATG (sugars k3 d10 k3, PS) | 30% |  | 
ACCCAAATGTGGAGCT (sugars k3 d10 k3, PS) |  | 3% | 
ACCCAATAGTCTAGCT (sugars k3 d10 k3, PS) | 25% |  | 
ACCCACCCAGTGTCTG (sugars k3 d10 k3, PS) | 18% |  | 
ACCCACGAAGATTCAA (sugars k3 d10 k3, PS) |  | -17% | 
ACCCAGTGGTAGGTAG (sugars k3 d10 k3, PS) | 30% |  | 
ACCCATTTAATCTGTC (sugars k3 d10 k3, PS) | 57% |  | 
ACCCTCCCCAACTTAA (sugars k3 d10 k3, PS) | 10% |  | 
ACCGACTCTTTTTTTA (sugars k3 d10 k3, PS) |  | -2% | 
ACCTAATCTACAACAA (sugars k3 d10 k3, PS) | 17% |  | 
ACCTCAGTTTGTGAAG (sugars k2 d9 e3 k2, PS) |  | 4% | 
ACCTCAGTTTGTGAAG (sugars kkddddddddddkeke, PS) |  | -12% | 
ACCTCAGTTTGTGAAG (sugars kkdddddddddekeke, PS) |  | 13% | 
ACCTCAGTTTGTGAAG (sugars kkdddddddddkdkdk, PS) |  | -3% | 
ACCTGCATCGAGATCA (sugars k3 d10 k3, PS) | 53% |  | 
ACCTGGCAACCATTTT (sugars k4 d8 k4, PS) | 19% |  | 
ACCTTAACCAATCCCA (sugars k3 d10 k3, PS) | 71% |  | 
ACCTTATGCTTGGCTC (sugars k3 d10 k3, PS) | 31% |  | 
ACCTTTTTTGGCTCCC (sugars k3 d10 k3, PS) | 21% |  | 
ACGACTTAAGCTAAAC (sugars k3 d10 k3, PS) | 58% |  | 
ACGATGATAGCTCACC (sugars k3 d10 k3, PS) | 8% |  | 
ACGCAAGGCTCGGAGC (sugars k3 d10 k3, PS) | 21% |  | 
ACGCACCCGCAGCCCA (sugars k3 d10 k3, PS) |  | -10% | 

Sequence | target mRNA inhibition (SK-MEL-28, 4 µM) | target mRNA inhibition (MM.1R, 1 µM) | further results
ACGCAGCCTCTAAGAA (sugars k3 d10 k3, PS) | 25% |  | 
ACGCCTTAATGTTCAG (sugars k3 d10 k3, PS) | 77% |  | 
ACGGAAGTTTACACTG (sugars k3 d10 k3, PS) | 77% |  | 
ACGGAAGTTTACACTG (sugars kkddddddddddkeke, PS) |  | 13% | 
ACGGAAGTTTACACTG (sugars kkdddddddddekeke, PS) |  | 8% | 
ACGGAAGTTTACACTG (sugars kkdddddddddkdkdk, PS) |  | -2% | 
ACGGAAGTTTACACTG (sugars kkkdddddddddkeke, PS) |  | 13% | 
ACGGACGGAGGCGGCA (sugars k3 d10 k3, PS) | 11% |  | 
ACGTGTGCTTGCCAAG (sugars kkddddddddddkeke, PS) |  | 6% and 26% | 
ACTAAGGACAGCTGTG (sugars k3 d10 k3, PS) | 15% |  | 
ACTCACTAAAGACTAT (sugars k3 d10 k3, PS) | 18% |  | 
ACTCATAGGTGTACAC (sugars k3 d10 k3, PS) | 45% |  | 
ACTCATGGAGGATCAT (sugars k3 d10 k3, PS) | 19% |  | 
ACTGAGTGTGCAGTTC (sugars k3 d10 k3, PS) | 36% |  | 
ACTGCTTGAGGTTTTC (sugars e1 k2 d9 k2 e2, PS) |  | 46% | 
ACTGCTTGAGGTTTTC (sugars k2 d9 e3 k2, PS) |  | 45% | 
ACTGCTTGAGGTTTTC (sugars k3 d9 k3 e1, PS) |  | 52% | 
ACTGCTTGAGGTTTTC (sugars kkkddddddddkekek, PS) |  | 32% | 
ACTGTTACCGATGCTT (sugars kddddddddddkekek, PS) |  | 20% | 
ACTGTTACCGATGCTT (sugars kkdddddddddekeke, PS) |  | 23% and 37% | 
ACTGTTACCGATGCTT (sugars kkdddddddddkdkdk, PS) |  | 22% and 31% | 
ACTTAGACATTACTAG (sugars k3 d10 k3, PS) | 20% |  | 
ACTTATTTGTGGCTCA (sugars k3 d10 k3, PS) |  | 36% | 
ACTTGCATCCATGTCA (sugars k3 d10 k3, PS) |  | 35% | 
ACTTGCTAAGTCTTAT (sugars k3 d10 k3, PS) |  | 13% | 
